The target of this assay is erythrocyte KCa3.1 channels (Homo sapiens (Human), UniProt O15554). As to the kind of experiment: Erythrocyte KCa3.1 assay. It is filed as cell-based. To be noted: human erythrocytes, A23187-activated, 37° C.; read-out: RBC K (in vitro) Human IC50. The procedure: Human blood was drawn from healthy human volunteers in a standard heparinized blood sampling vial (Vacutainer, Li/heparin, BD Bioscience, Plymouth, UK). The erythrocytes were packed by centrifugation, and the plasma and buffy coat were removed by aspiration. Erythrocytes were washed three times in the experimental salt solution and then stored at 0° C. until use. Blood samples from NMRI mice or from Wistar rats were treated similarly. The methodological principle is outlined in Macey et al. (1978) and further described in Strøbæk et al. (2013). Activation of the erythrocyte KCa3.1 channels were obtained by addition of the Ca^2+ ionophore A23187, which causes synchronized hyperpolarization, which is reported as a CCCP-mediated shift in the unbuffered extracellular pH of the erythrocyte suspension. Standard procedure: 3 mL unbuffered experimental salt solution (in mM: 2 KCl, 154 NaCl, 0.05 CaCl2) was heated to 37° C. with stirring. Packed erythrocytes were added (50 μL, final cytocrit 1.5%), and the extracellular pH (pHo) followed with a glass/calomel (pHG200-8/REF200, Radiometer, Denmark) electrode pair. CCCP (3 μL, final concentration 20 μM) was added followed by varying concentrations of test compounds (DMSO concentration constant). After pH stabilization at ˜7.2, A23187 (3 μL, final concentration 0.33 μM) was added to initiate the experiment. After the peak hyperpolarization was attained, the intracellular pH (pHi constant during the experiment) was found by haemolysing the erythrocytes via addition of 100 μL of Triton-X100.
The erythrocyte membrane potential, Vm, was calculated according to: Vm=−61.5 mV×(pHo−pHi) and the fractional remaining Ca^2+-activated K^+-conductance at the concentration C of blocker, fGK(C), was calculated from
[formula] where the K^+ equilibrium potential EK=−107 mV, the Cl^− equilibrium potential ECl=−12 mV and the Vm(0) and Vm(C) are the peak hyperpolarizations in the control and in the presence of a concentration of C of blocker respectively.
IC50 values for compounds were calculated from a plot of fGK(C) versus C by a fit to the Hill equation, using a custom program written in the IGOR-Pro software (WaveMetrics, Lake Oswego, OR, USA). All IC50-values are reported in μM.
Consider `COC(=O)N1CC(N(C(=O)OC)C2(c3ccc(F)c(C(F)(F)F)c3)CC2)C1` [[4], Methyl 3-((1-(4-fluoro-3-(trifluoromethyl)phenyl)cyclopropyl) (methoxycarbonyl)amino)azetidine-1-carboxylate], for which the IC50 came out at 0.071 µM. On to `COC(=O)N(C1CNC1)C1(c2ccc(F)c(C(F)(F)F)c2)CC1` [[5], Methyl azetidin-3-yl(1-(4-fluoro-3-(trifluoromethyl)phenyl)cyclopropyl)carbamate], for which the IC50 was 0.31 µM. Regarding `Fc1ccc(C2(N(CC3CC3)C3CNC3)CC2)cc1C(F)(F)F` [[6], N-(cyclopropylmethyl)-N-(1-(4-fluoro-3-(trifluoromethyl)phenyl)cyclopropyl)azetidin-3-amine], the IC50 was found to be 0.19 µM. Turning to `COC(=O)N(CCN)C1(c2ccc(F)c(C(F)(F)F)c2)CC1` [[7], Methyl (2-aminoethyl)(1-(4-fluoro-3-(trifluoromethyl)phenyl)cyclopropyl)carbamate], the IC50 was found to be 0.48 µM. As for `CC(C)(N)CN(C(=O)C1CC1)C1(c2ccc(F)c(C(F)(F)F)c2)CC1` [[9], N-(2-amino-2-methylpropyl)-N-(1-(4-fluoro-3-(trifluoromethyl)phenyl)cyclopropyl)cyclopropanecarboxamide], the IC50 was determined as 0.35 µM. In the case of `CC(C)(N)CN(C1CC1)C1(c2cccc(C(F)(F)F)c2)CC1` [[10], N1-cyclopropyl-2-methyl-N1-(1-(3-(trifluoromethyl)phenyl)cyclopropyl)propane-1,2-diamine] it was 0.024 µM; in that of `COC(=O)N(CC(C)(C)N)C1(c2cc(Cl)cc(Cl)c2)CC1` [[11], Methyl (2-amino-2-methylpropyl)(1-(3,5-dichlorophenyl)cyclopropyl)carbamate], 0.3 µM; in that of `COC(=O)N(CC(C)(C)N)C1(c2cccc(Br)c2)CC1` [[12], Methyl (2-amino-2-methylpropyl)(1-(3-bromophenyl)cyclopropyl)carbamate], 0.4 µM.

`COC(=O)N(CC(C)(C)N)C1(c2cccc(Cl)c2)CC1` [[13], Methyl (2-amino-2-methylpropyl)(1-(3-chlorophenyl)cyclopropyl)carbamate]: the IC50 came to 0.44 µM. `CC(C)(O)CN(CC1CCN1)C1(c2ccc(F)c(C(F)(F)F)c2)CC1` (stereo not drawn) [[14], 1-((azetidin-2-ylmethyl)(1-(4-fluoro-3-(trifluoromethyl)phenyl)cyclopropyl)amino)-2-methyl propan-2-ol]: the IC50 came to 0.25 µM.

As to `COC(=O)N(CC(C)(C)N)C1(c2cccc(C(F)(F)F)c2)CC1` [[15], Methyl (2-amino-2-methylpropyl)(1-(3-(trifluoromethyl)phenyl)cyclopropyl)carbamate], the IC50 amounted to 0.14 µM.

As to `CC(C)(N)CN(C1CCC1)C1(c2cccc(C(F)(F)F)c2)CC1` [[18], N1-cyclobutyl-2-methyl-N1-(1-(3-(trifluoromethyl)phenyl)cyclopropyl)propane-1,2-diamine], the concentration for half-maximal inhibition (IC50) turned out to be 0.018 µM. As to `CCOC(=O)N(CC(C)(C)N)C1(c2ccc(F)c(C(F)(F)F)c2)CC1` [[19], Ethyl (2-amino-2-methylpropyl)(1-(4-fluoro-3-(trifluoromethyl)phenyl)cyclopropyl)carbamate], the IC50 amounted to 0.047 µM. As for `COC(=O)N(CC(C)(C)N)C1(c2ccc(F)c(OC(F)(F)F)c2)CC1` [[20], Methyl (2-amino-2-methylpropyl)(1-(4-fluoro-3-(trifluoromethoxy)phenyl)cyclopropyl)carbamate], the IC50 came to 0.092 µM. In the case of `CC(C)(N)CN(C1(c2ccc(F)c(C(F)(F)F)c2)CC1)S(C)(=O)=O` [[21], N-(2-amino-2-methylpropyl)-N-(1-(4-fluoro-3-(trifluoromethyl)phenyl)cyclopropyl)methanesulfonamide], the IC50 came to 0.075 µM. For the compound `COC(=O)N(C[C@H]1CCCN1)C1(c2ccc(F)c(C(F)(F)F)c2)CC1` [[22], Methyl (R)-(1-(4-fluoro-3-(trifluoromethyl)phenyl)cyclopropyl)(pyrrolidin-2-ylmethyl)carbamate], the IC50 is 0.21 µM. In the case of `COC(=O)N(C[C@@H]1CCCN1)C1(c2ccc(F)c(C(F)(F)F)c2)CC1` [[23], Methyl (S)-(1-(4-fluoro-3-(trifluoromethyl)phenyl)cyclopropyl)(pyrrolidin-2-ylmethyl)carbamate] it was 0.12 µM; in that of `COC(=O)N(CC(C)(C)NC(C)=O)C1(c2ccc(F)c(C(F)(F)F)c2)CC1` [[24], Methyl (2-acetamido-2-methylpropyl)(1-(4-fluoro-3-(trifluoromethyl)phenyl)cyclopropyl)carbamate], 0.31 µM; in that of `CC(C)(N)CNC1(c2ccc(F)c(C(F)(F)F)c2)CC1` [[25], N1-(1-(4-fluoro-3-(trifluoromethyl)phenyl)cyclopropyl)-2-methylpropane-1,2-diamine], 0.18 µM. For the compound `COC(=O)N(CC1CCN1)C1(c2ccc(F)c(C(F)(F)F)c2)CC1` (stereo not drawn) [[26], Methyl (azetidin-2-ylmethyl)(1-(4-fluoro-3-(trifluoromethyl)phenyl)cyclopropyl)carbamate], the IC50 turned out to be 0.21 µM. Regarding `COC(=O)N(C[C@@H]1CCCN1)C1(c2ccc(F)c(OC(F)(F)F)c2)CC1` [[28], Methyl (S)-(1-(4-fluoro-3-(trifluoromethoxy)phenyl)cyclopropyl)(pyrrolidin-2-ylmethyl)carbamate], the IC50 came out at 0.087 µM. `COC(=O)N(C[C@H]1CCCN1)C1(c2ccc(F)c(OC(F)(F)F)c2)CC1` [[29], Methyl (R)-(1-(4-fluoro-3-(trifluoromethoxy)phenyl)cyclopropyl)(pyrrolidin-2-ylmethyl)carbamate]: the half-inhibitory concentration (IC50) was determined as 0.33 µM.

`COC(=O)N(CC1CCN1C)C1(c2ccc(F)c(C(F)(F)F)c2)CC1` (stereo not drawn) [[30], Methyl (1-(4-fluoro-3-(trifluoromethyl)phenyl)cyclopropyl)((1-methylazetidin-2-yl)methyl)carbamate]: the IC50 is 0.17 µM.

`COC(=O)N(CC1CCN1)C1(c2ccc(F)c(OC(F)(F)F)c2)CC1` (stereo not drawn) [[32], Methyl (azetidin-2-ylmethyl)(1-(4-fluoro-3-(trifluoromethoxy)phenyl)cyclopropyl)carbamate]: the IC50 worked out at 0.27 µM. In the case of `COC(=O)N(CC(C)(C)NO)C1(c2ccc(F)c(C(F)(F)F)c2)CC1` [[33], Methyl (1-(4-fluoro-3-(trifluoromethyl)phenyl)cyclopropyl)(2-(hydroxyamino)-2-methylpropyl)carbamate], the IC50 turned out to be 0.12 µM. Regarding `CCOC(=O)N(C[C@@H]1CCCN1)C1(c2ccc(F)c(C(F)(F)F)c2)CC1` [[34], Ethyl (S)-(1-(4-fluoro-3-(trifluoromethyl)phenyl)cyclopropyl)(pyrrolidin-2-ylmethyl)carbamate], the IC50 was found to be 0.052 µM. Turning to `CN1CCC[C@H]1CN(C1(c2ccc(F)c(C(F)(F)F)c2)CC1)S(C)(=O)=O` [[37], (S)—N-(1-(4-fluoro-3-(trifluoromethyl)phenyl)cyclopropyl)-N-((1-methylpyrrolidin-2-yl)methyl)methanesulfonamide], the IC50 turned out to be 0.14 µM. For `CCOC(=O)N(C[C@H]1CCCN1)C1(c2ccc(F)c(C(F)(F)F)c2)CC1` [[38], Ethyl (R)-(1-(4-fluoro-3-(trifluoromethyl)phenyl)cyclopropyl)(pyrrolidin-2-ylmethyl)carbamate], the IC50 stood at 0.12 µM.

As to `COC(=O)N(C[C@@H]1COCCN1)C1(c2ccc(F)c(C(F)(F)F)c2)CC1` [[39], Methyl (R)-(1-(4-fluoro-3-(trifluoromethyl)phenyl)cyclopropyl)(morpholin-3-ylmethyl) carbamate], the IC50 came to 0.42 µM. Take `COC(=O)N(C[C@@H]1COCCN1C)C1(c2ccc(F)c(C(F)(F)F)c2)CC1` [[40], Methyl (R)-(1-(4-fluoro-3-(trifluoromethyl)phenyl)cyclopropyl)((4-methylmorpholin-3-yl)methyl)carbamate]: the IC50 was 0.27 µM.

`CS(=O)(=O)N(C[C@H]1CCCN1)C1(c2ccc(F)c(C(F)(F)F)c2)CC1` [[41], (R)—N-(1-(4-fluoro-3-(trifluoromethyl)phenyl)cyclopropyl)-N-(pyrrolidin-2-ylmethyl) methane sulfonamide]: the IC50 is 0.38 µM. With `COC(=O)N(C[C@H]1COCCN1C)C1(c2ccc(F)c(C(F)(F)F)c2)CC1` [[43], Methyl (S)-(1-(4-fluoro-3-(trifluoromethyl)phenyl)cyclopropyl)((4-methylmorpholin-3-yl)methyl)carbamate], the IC50 amounted to 0.29 µM. As for `O=C(OC1CC1)N(C[C@@H]1CCCN1)C1(c2ccc(F)c(C(F)(F)F)c2)CC1` [[45], Cyclopropyl (S)-(1-(4-fluoro-3-(trifluoromethyl)phenyl)cyclopropyl)(pyrrolidin-2-ylmethyl)carbamate], the IC50 is 0.18 µM.

These data come from patent US12006289B2, “Potassium channel inhibitors” (Saniona A/S, priority 2019, dated 2024).
